# Measurements reported in US10941157B2, “Pesticidal compositions and uses thereof” (Gilead Apollo, LLC, priority 2015, dated 2021).
# Read-outs that look alike come from different tables or passages of the source.
# What was measured:
# [1] = tested on: Mycosphaerella graminicola (synthetic Septoria tritici); experiment: Foliar protection test for wheat septoria leaf blotch control; format: in vivo; details: foliar spray on Triticum aestivum cv. WinterHawk, inoculated 1 hour after treatment, evaluated 16 days later
# Phakopsora pachyrhizi = experiment: Foliar protection test for Asian soybean rust control; format: in vivo; details: foliar application to soybean (Glycine max AG4832), percent disease area evaluated 14 days later
# Diplodia maydis (Dm) = experiment: In vitro pathogen growth inhibition assay, Dm; format: cell-based; details: Stenocarpella maydis, 48 h
# Summary of the method: (§1)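 Value reported is the compound concentration reaching ≥90% growth inhibition, from OD readings at 24 and 48 h after blank subtraction, confirmed visually. Inoculum was spores diluted in 17% V8 medium, except Rs, using 1.5 mm mycelial plugs in ¼ PDB; actual compound concentration corrected via OD600.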
# Fusarium graminearum = format: in vivo; details: spray on flowering Triticum aestivum cv. Samson, inoculated 24 hours after treatment, evaluated 14 days later
# Botrtyis cinerea (Bc) = experiment: In vitro pathogen growth inhibition assay, Bc; format: cell-based; details: 48 h
# Summary of the method: as §1
# [2] = tested on: Phytophthora capsici (Pc); experiment: In vitro pathogen growth inhibition assay, Pc; format: cell-based; details: 48 h
# Summary of the method: as §1
# Septoria tritici (St) = experiment: In vitro pathogen growth inhibition assay, St; format: cell-based; details: Zymoseptoria tritici, 48 h
# Summary of the method: as §1
# Rhizoctonia solani (Rs) = experiment: In vitro pathogen growth inhibition assay, Rs (mycelial plugs); format: cell-based; details: Rhizoctonia solani, 48 h, mycelial plugs
# Summary of the method: as §1
# Sphaerotheca fuliginea = experiment: Foliar protection for cucumber powdery mildew control; format: in vivo; details: foliar spray on Cucumis sativus cv. Straight Eight, inoculated 24 hours after treatment, evaluated 7 days later
# Experimental: Plants (Cucumis sativus cv. Straight Eight) were grown for 10 days in 2.5-inch square pots containing Metromix 200 medium amended with fertilizer. For propagation, plants were maintained in a growth chamber at conditions of 23 to 27° C., 16 hour light cycle, ambient humidity, and with sub-irrigation as needed. After inoculation with the pathogen of Sphaerotheca fuliginea, plants were kept at conditions of 23 to 27° C., 16 hour light cycle, 60% relative humidity, and with sub-irrigation as needed to facilitate infection and disease development. […] An atomizer was used for applying the solution onto both sides of the leaves until thoroughly wetted. […] At 24 hours after treatment, the plants were moved to a cooler chamber and inoculated by shaking well-colonized, untreated stock plants above the treated plants. This allowed producing a settling cloud of spores and resulting in uniform infection. Inoculated plants were kept near other sporulating stock plants to allow for infection of newly emerging leaves. Efficacy was evaluated in 7 days later by examining leaves for colonization and growth of mildew. Table 5 lists the results of cucumber powdery mildew control at a compound concentration of 10 ppm or lower.
# [3] = tested on: Fusarium virguliforme (Fv); experiment: In vitro pathogen growth inhibition assay, Fv; format: cell-based
# Summary of the method: as §1
# [4] = tested on: Collectotrichum graminicola (Cg); experiment: In vitro pathogen growth inhibition assay, Cg; format: cell-based; details: 48 h
# Summary of the method: as §1
# [5] = tested on: Fusarium moniliforme (Fm); experiment: In vitro pathogen growth inhibition assay, Fm; format: cell-based; details: Fusarium verticillioides
# Summary of the method: as §1
# [6] = tested on: Blumeria graminis f. sp. hordei; experiment: Foliar protection test for barley powdery mildew control; format: in vivo; details: foliar spray on Hordeum vulgare cv. Perry, inoculated 24 hours after treatment, evaluated 7 days later
# Summary of the method: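 Protective foliar test: compound atomized onto both leaf surfaces of 6-day-old Hordeum vulgare cv. Perry, followed after 24 h by spore-cloud inoculation from colonized untreated plants. Disease rated on leaves 7 days on, plants held at 20 to 22° C and 70% RH.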
# Puccinia triticina = experiment: Foliar protection test for wheat leaf rust control; format: in vivo; details: foliar application to wheat (Triticum aestivum cv. Winterhawk), evaluated 10 days later
# [7] = ≥90% inhibition, 48 hours vs 2% DMSO control, read-out: Compound Concentration (ppm) sufficient for ≥90% inhibition of growth, Dm
# [8] = ≥90% inhibition, 48 hours vs 2% DMSO control, read-out: Compound Concentration (ppm) sufficient for ≥90% inhibition of growth, Bc
# [9] = ≥90% inhibition, 48 hours vs 2% DMSO control, read-out: Compound Concentration (ppm) sufficient for ≥90% inhibition of growth, Pc
# [10] = ≥90% inhibition, 48 hours vs 2% DMSO control, read-out: Compound Concentration (ppm) sufficient for ≥90% inhibition of growth, St
# [11] = ≥90% inhibition, 48 hours vs 2% DMSO control, read-out: Compound Concentration (ppm) sufficient for ≥90% inhibition of growth, Rs
# [12] = ≥90% inhibition, 48 hours vs 2% DMSO control, read-out: Compound Concentration (ppm) sufficient for ≥90% inhibition of growth, Fv
# [13] = ≥90% inhibition, 48 hours vs 2% DMSO control, read-out: Compound Concentration (ppm) sufficient for ≥90% inhibition of growth, Cg
# [14] = ≥90% inhibition, 48 hours vs 2% DMSO control, read-out: Compound Concentration (ppm) sufficient for ≥90% inhibition of growth, Fm
# [15] = ≥90% growth inhibition, 48 hours, vs 2% DMSO control, read-out: Compound Concentration (ppm) sufficient for ≥90% inhibition of Dm
# [16] = ≥90% growth inhibition, 48 hours, vs 2% DMSO control, read-out: Compound Concentration (ppm) sufficient for ≥90% inhibition of Bc
# [17] = ≥90% growth inhibition, 48 hours, vs 2% DMSO control, read-out: Compound Concentration (ppm) sufficient for ≥90% inhibition of Pc
# [18] = ≥90% growth inhibition, 48 hours, vs 2% DMSO control, read-out: Compound Concentration (ppm) sufficient for ≥90% inhibition of St
# [19] = ≥90% growth inhibition, 48 hours, vs 2% DMSO control, read-out: Compound Concentration (ppm) sufficient for ≥90% inhibition of Rs
# [20] = ≥90% growth inhibition, 48 hours, vs 2% DMSO control, read-out: Compound Concentration (ppm) sufficient for ≥90% inhibition of Fv
# [21] = ≥90% growth inhibition, 48 hours, vs 2% DMSO control, read-out: Compound Concentration (ppm) sufficient for ≥90% inhibition of Cg
# [22] = ≥90% growth inhibition, 48 hours, vs 2% DMSO control, read-out: Compound Concentration (ppm) sufficient for ≥90% inhibition of Fm
SMILES,Septoria Leaf Blotch Control at a compound concentration of 25 ppm or lower [1],Asian Soybean Rust Control at a compound concentration of 25 ppm or lower (Phakopsora pachyrhizi),IC90 (Diplodia maydis (Dm); [7]) [µg/mL],Wheat Fusarium Head Blight Control at a compound concentration of 25 ppm or lower (Fusarium graminearum),IC90 (Botrtyis cinerea (Bc); [8]) [µg/mL],"IC90 [2, 9] [µg/mL]",IC90 (Septoria tritici (St); [10]) [µg/mL],IC90 (Rhizoctonia solani (Rs); [11]) [µg/mL],Cucumber Powdery Mildew Control at a compound concentration of 10 ppm or lower (Sphaerotheca fuliginea),"IC90 [3, 12] [µg/mL]",Barley Powdery Mildew Control at a compound concentration of 10 ppm or lower [6],Wheat Leaf Rust Control at a compound concentration of 10 ppm or lower (Puccinia triticina),IC90 (Diplodia maydis (Dm); [15]) [µg/mL],IC90 (Botrtyis cinerea (Bc); [16]) [µg/mL],"IC90 [2, 17] [µg/mL]",IC90 (Septoria tritici (St); [18]) [µg/mL],IC90 (Rhizoctonia solani (Rs); [19]) [µg/mL],"IC90 [3, 20] [µg/mL]","IC90 [4, 21] [µg/mL]","IC90 [5, 22] [µg/mL]",further results
"COCCCO[C@@H](Cn1c(=O)n([C@H](C)C(=O)NC(C)C)c(=O)c2c(C)c(-n3nccn3)sc21)c1cc(F)ccc1OC [Compound I-094, (R)-2-(1-((R)-2-(5-fluoro-2-methoxyphenyl)-2-(3-methoxypropoxy)ethyl)-5-methyl-2,4-dioxo-6-(2H-1,2,3-triazol-2-yl)-1,4-dihydrothieno[2,3-d]pyrimidin-3 (2H)-yl)-N-isopropylpropanamide]",A (from 70% to 84% control of wheat septoria leaf blotch),C (from 25 to 49% control of Asian soybean rust),> 0.4,A (from 70% to 84% control of wheat fusarium head blight),0.08,> 50,≥ 10,0.08,AA (≥85% control of cucumber powdery mildew),0.08,AA (≥85% control of barley powdery mildew),C (from 25 to 49% control of wheat leaf rust),,,,,,,,,"IC90 [4, 13]: 0.08 µg/mL; IC90 [5, 14]: 0.08 µg/mL"
"CCOC(=O)c1sc2c(c1C)c(=O)n(C(C)(C)C(=O)NC(C)C)c(=O)n2C[C@H](OCCS(C)(=O)=O)c1cc(F)ccc1OC [Compound I-285, (R)-ethyl-1-(2-(5-fluoro-2-methoxyphenyl)-2-(2-(methylsulfonyl)ethoxy)ethyl)-3-(1-(isopropylamino)-2-methyl-1-oxopropan-2-yl)-5-methyl-2,4-dioxo-1,2,3,4-tetrahydrothieno[2,3-d]pyrimidine-6-carboxylate]",C (from 25 to 49% control of wheat septoria leaf blotch),C (from 25 to 49% control of Asian soybean rust),,C (from 25 to 49% control of wheat fusarium head blight),,,,,AA (≥85% control of cucumber powdery mildew),,A (from 70% to 84% control of barley powdery mildew),AA (≥85% control of wheat leaf rust),≥ 2,2,50,≥ 50,0.4,2,0.4,0.4,
"CCOC(=O)c1sc2c(c1C)c(=O)n(C(C)(C)C(=O)NC(C)C)c(=O)n2C[C@H](OCCO)c1cc(F)ccc1OC [Compound I-184, (R)-ethyl-1-(2-(5-fluoro-2-methoxyphenyl)-2-(2-hydroxyethoxy)ethyl)-3-(1-(isopropylamino)-2-methyl-1-oxopropan-2-yl)-5-methyl-2,4-dioxo-1,2,3,4-tetrahydrothieno[2,3-d]pyrimidine-6-carboxylate]",C (from 25 to 49% control of wheat septoria leaf blotch),B (from 50 to 69% control of Asian soybean rust),,A (from 70% to 84% control of wheat fusarium head blight),,,,,AA (≥85% control of cucumber powdery mildew),,A (from 70% to 84% control of barley powdery mildew),AA (≥85% control of wheat leaf rust),0.4,2,50,> 50,0.08,2,0.4,0.08,
"COc1ccc(F)cc1[C@H](Cn1c(=O)n(C(C)(C)C(=O)NC(C)C)c(=O)c2c(C)c(-n3nccn3)sc21)OC1CCOCC1 [Compound I-030, (R)-2-(1-(2-(5-fluoro-2-methoxyphenyl)-2-((tetrahydro-2H-pyran-4-yl)oxy)ethyl)-5-methyl-2,4-dioxo-6-(2H-1,2,3-triazol-2-yl)-1,4-dihydrothieno[2,3-d]pyrimidin-3 (2H)-yl)-N-isopropyl-2-methylpropanamide]",B (from 50 to 69% control of wheat septoria leaf blotch),A (from 70% to 84% control of Asian soybean rust),≥ 0.4,B (from 50 to 69% control of wheat fusarium head blight),0.4,50,≥ 2,0.08,AA (≥85% control of cucumber powdery mildew),0.4,AA (≥85% control of barley powdery mildew),AA (≥85% control of wheat leaf rust),,,,,,,,,"IC90 [4, 13]: 0.4 µg/mL; IC90 [5, 14]: 0.08 µg/mL"
"CCNC(=O)C(C)(C)n1c(=O)c2c(C)c(C(=O)OCC)sc2n(C[C@H](OCCC#N)c2ccccc2OC)c1=O [Compound I-234, (R)-ethyl-1-(2-(2-cyanoethoxy)-2-(2-methoxyphenyl)ethyl)-3-(1-(ethylamino)-2-methyl-1-oxopropan-2-yl)-5-methyl-2,4-dioxo-1,2,3,4-tetrahydrothieno[2,3-d]pyrimidine-6-carboxylate]",C (from 25 to 49% control of wheat septoria leaf blotch),A (from 70% to 84% control of Asian soybean rust),,C (from 25 to 49% control of wheat fusarium head blight),,,,,AA (≥85% control of cucumber powdery mildew),,AA (≥85% control of barley powdery mildew),AA (≥85% control of wheat leaf rust),2,2,> 50,> 10,2,2,2,0.08,
